Here are results for 3 compounds from article PMC11352258, “The Influence of Betulin and Its Derivatives on Selected Colorectal Cancer Cell Lines’ Viability and Their Antioxidant Systems” (Cells, 2024).

Values joined by “and” are separate entries in the source; they are usually repeats but may differ in a detail not shown here. Equal values may be shown once. Read-outs that look alike come from different tables or passages of the source. Some results are limits rather than exact numbers.

In data set [1] the test system is RKO cells. Kind of data set: MTT cytotoxicity assay, RKO. The method, then:
(§1) Six colorectal cancer cell lines, RKO, HT29, DLD-1, HCT116, Caco2 and SW1116 (CRL-2577, HTB-38, CCL-221, CCL-247, HTB-37, CCL-233; ATCC, Manassas, VA, USA, respectively, for CRC lines), and one normal cell line, CCD-841CoN (CRL-1790, ATCC, USA), were routinely cultured at 37 °C in a 5% CO2 incubator (Direct Heat CO2; Thermo Scientific, Waltham, MA, USA) in cell line-appropriate culture medium according to the manufacturer’s recommendations. Eagle’s minimum essential medium (EMEM) was used to culture RKO, Caco2 and CCD-841CoN lines, while McCoy’s 5A medium was used for HT29 and HCT116 lines. DLD-1 cells were grown in RPMI-1640 medium, whereas SW1116 cells were maintained in Leibovitz’s L-15 medium. All culture media were supplemented with 10% fetal bovine serum (EuroClone, Milan, Italy), and gentamycin at the concentration […] (BioWhittaker, Lonza, Basel, Switzerland) was also applied to prevent culture contamination.
(§2) For this purpose, cells were exposed to the test compound for 24 h at concentrations of 0.1, 1, 10, 20, 50 and 100 μg/mL. Control cells were not treated with the compounds. MTT (0.25 mg/mL) was then added to the cultures and incubated for 3 h at 37 °C. After a time, the cells were washed with phosphate buffered saline (PBS), and next, formazan dye was dissolved in 100 μL of dimethyl sulfoxide (Sigma-Aldrich, St Louis, MO, USA). Absorbance was measured at 540 nm using a Wallac 1420 VICTOR microplate reader (PerkinElmer, Waltham, MA, USA).
A general note: Formazan colour is commonly taken as a measure of viable cells.

In data set [2] the test system is HT29 cells. Briefly: MTT cytotoxicity assay, HT29. The data set is classed as cell-based. Conditions: for IC50: read-out: IC50 value. From the text: (§3) Control cells were not treated with the compounds.
In data set [3] the test system is DLD-1 cells. Kind of data set: MTT cytotoxicity assay, DLD-1. It counts as cell-based. Conditions: for IC50: read-out: IC50 value.
Text: as §3

In data set [4] the test system is HCT116 cells. Briefly: MTT cytotoxicity assay, HCT116. It counts as cell-based. Conditions: for IC50: read-out: IC50 value.
Text: as §3

In data set [5] the test system is SW1116 cells. Briefly: MTT cytotoxicity assay, SW1116. Conditions: for IC50: read-out: IC50 value. The method, then:
as §1, §2

The test system of data set [6] is CCD-841CoN cells. Kind of data set: in vitro. Conditions: 24 h; for IC50: read-out: IC50 value. The data set is classed as cell-based.
Text: as §3

The test system of data set [7] is RKO cells. Briefly: Total antioxidant capacity (ABTS+), RKO. Conditions: 10 µg/mL, 24 h. It counts as cell-based. As to the method:
(§4) In addition, two colorectal cancer cell lines, RKO and SW1116, were distinguished based on a different response to the EB5 derivative. To perform subsequent analyses, the selected CRC lines were treated with EB5 derivative at a concentration of 10 µg/mL for 24 h. Untreated cells were used as a negative control. Three biological replicates were performed.
(§5) To examine the antioxidant capacity of the cells as well as lipid peroxidation and to evaluate the activity of antioxidant enzymes, the cells were suspended in lysis buffer (containing 4 mg of […]™ Protease Inhibitor Cocktail and 10 µL of Phosphatase Inhibitor Cocktail 3 in 1 mL of PBS; Sigma-Aldrich, St Louis, MO, USA). Subsequently, the cells were placed in liquid nitrogen for 30 min, followed by storage at −80 °C until further analysis.
The ABTS+ radical cation was used to assess the total antioxidant capacity (TAC) of the tested cells. The principle of the method is based on the reduction of the formed blue-green chromophore ABTS+ as a result of the reaction of ABTS (Sigma-Aldrich, St Louis, MO, USA) with potassium persulphate (Sigma-Aldrich, St Louis, MO, USA). The degree of decolorization of the ABTS+ radical cation depends on the antioxidant activity of the cells and is determined as a function of concentration and time in relation to Trolox reactivity (TEAC-Trolox equivalent antioxidant capacity).

Data set [8] concerns RKO cells. Briefly: Lipid peroxidation, MDA assay, RKO. The data set is classed as cell-based. Conditions: 10 µg/mL, 24 h. As to the method:
(§6) In addition, two colorectal cancer cell lines, RKO and SW1116, were distinguished based on a different response to the EB5 derivative. […] Untreated cells were used as a negative control. Three biological replicates were performed. To examine the antioxidant capacity of the cells as well as lipid peroxidation and to evaluate the activity of antioxidant enzymes, the cells were suspended in lysis buffer (containing 4 mg of […]™ Protease Inhibitor Cocktail and 10 µL of Phosphatase Inhibitor Cocktail 3 in 1 mL of PBS; Sigma-Aldrich, St Louis, MO, USA). Subsequently, the cells were placed in liquid nitrogen for 30 min, followed by storage at −80 °C until further analysis. To assess the level of lipid peroxidation, the Malondialdehyde Assay Kit (Aoxre BioSciences, Burlingame, CA, USA) was used, according to the manufacturer’s recommendations.

Data set [9] relates to SW1116 cells. Kind of data set: Lipid peroxidation, MDA assay, SW1116. It counts as cell-based. Conditions: SW1116, 10 µg/mL, 24 h. As to the method: as §6
In data set [10] the test system is catalase (CAT) activity in RKO cells. Kind of data set: CAT activity in RKO cells. It counts as cell-based. Conditions: 10 µg/mL, 24 h. As to the method: as §4, §5
Superoxide dismutase (SOD), glutathione peroxidase (GPx) and catalase (CAT) activities were assessed using a commercially purchased Cayman Chemicals Superoxide Dismutase Assay Kit, a Cayman Chemicals Glutathione Peroxidase Assay Kit and a Catalase Assay Kit (Cayman Chemicals, Ann Arbor, MI, USA), respectively, according to the manufacturer’s recommendations and based on a previous study. […] The level of change in absorbance was measured spectrophotometrically at the appropriate wavelength for the assay, i.e., for SOD in the range 440–460 nm, for GPx at 340 nm and for CAT at 540 nm.

Data set [11] concerns catalase (CAT) activity in SW1116 cells. Kind of data set: CAT activity in SW1116 cells. The data set is classed as cell-based. Conditions: SW1116, 10 µg/mL, 24 h. As to the method: as §4, §5
Superoxide dismutase (SOD), glutathione peroxidase (GPx) and catalase (CAT) activities were assessed using a commercially purchased Cayman Chemicals Superoxide Dismutase Assay Kit, a Cayman Chemicals Glutathione Peroxidase Assay Kit and a Catalase Assay Kit (Cayman Chemicals, Ann Arbor, MI, USA), respectively, according to the manufacturer’s recommendations and based on a previous study. The cell supernatant from previously prepared cell lysates of the tested lines provided material for further analyses. The level of change in absorbance was measured spectrophotometrically at the appropriate wavelength for the assay, i.e., for SOD in the range 440–460 nm, for GPx at 340 nm and for CAT at 540 nm.

Data set [12] has as its system SOD1 gene expression in RKO cells. Briefly: SOD1 mRNA, real-time RT-qPCR, RKO. The data set is classed as cell-based. Conditions: 10 µg/mL, 24 h. The method, then:
as §4
(§7) Total RNA from treated cells was extracted using TRIzol reagent (Sigma-Aldrich, St Louis, MO, USA) according to the manufacturer’s instructions. The obtained RNA was assessed qualitatively and quantitatively by agarose gel electrophoresis and by spectrophotometric measurement using MaestroNano MN-913 (MaestroGen Inc., Las Vegas, NV, USA), respectively. The obtained extracts provided the starting material for the assessment of genes changes at the mRNA level.
(§8) Changes in the expression of SOD1, SOD2, CAT and GPX3 genes involved in antioxidant systems were assessed by real-time RT-qPCR using a LightCycler® 480 System apparatus (Roche, Basel, Switzerland). A commercially purchased GoTaq® 1-Step RT-qPCR System (Promega, Madison, WI, USA) was used, while the primers and reaction conditions were the same as in the previous study performed by Kruszniewska-Rajs et al.. GAPDH was used as the reference gene. The mRNA expression level studied genes were then determined by the 2^−ΔCt relative quantification method. All samples were tested in triplicate. The specificity of the reaction was evaluated based on the melting temperature curve, as well as using electrophoresis of the amplification products in a 2% agarose gel.

Data set [13] deals with SOD2 gene expression in RKO cells. Briefly: SOD2 mRNA, real-time RT-qPCR, RKO. The data set is classed as cell-based. Conditions: 10 µg/mL, 24 h. The method, then:
as §4, §7, §8
(In general: Real-time PCR tracks product formation cycle by cycle.)

Data set [14] has as its system CAT gene expression in RKO cells. Kind of data set: CAT mRNA, real-time RT-qPCR, RKO. Conditions: 10 µg/mL, 24 h. It counts as cell-based. As to the method: as §4, §7, §8
The test system of data set [15] is CAT gene expression in SW1116 cells. Kind of data set: CAT mRNA, real-time RT-qPCR, SW1116. The data set is classed as cell-based. Conditions: SW1116, 10 µg/mL, 24 h. As to the method:
as §4, §7, §8

Data set [16] deals with Caco2 cells. Briefly: MTT cytotoxicity assay, Caco2. It counts as cell-based. Conditions: Homo sapiens, Caco-2, 24 h, read-out: IC50 value.
Data set [17] has as its system colorectal cancer cell lines RKO, HT29, DLD-1, HCT116, Caco2 and SW1116. Briefly: MTT cytotoxicity assay, statements over all tested cell lines. As to the method: as §1, §2
Where [18] appears, read: Homo sapiens, 24 h, read-out: IC50 value.

In data set [1] (MTT, 24 h), `N.N.[Cl][Pt][Cl]` [Cisplatin, cisplatin] came in with an IC50 value of 6.35 µg/mL. In data set [1] (read-out: IC50 value, MTT, 24 h), the IC50 was 21.2 µM. Moreover, in [2] (HT29, MTT, 24 h), the IC50 value is given as greater than 100 µg/mL and the IC50 was greater than 333 µM. Further, in data set [3] (DLD-1, MTT, 24 h), the IC50 value was 27.72 µg/mL and the IC50 came to 92.4 µM. Also, in data set [4] (HCT 116, MTT, 24 h), the IC50 value is 3.02 µg/mL and the IC50 was 10.1 µM. In data set [5] (SW1116, MTT, 24 h), the IC50 value was greater than 100 µg/mL and the IC50 is greater than 333 µM. In [6] (CCD-841CoN normal cells, MTT), the IC50 value came out at 27.59 µg/mL and the IC50 came to 91.9 µM. Moreover, in data set [7], the “reduction in TAC compared to the control cells” value was “about 23.6%”. Further, in data set [8], the “MDA level compared to the control group” value is “did not cause changes”. Also, in [9], the “MDA level compared to 5FU-treated cells” value is given as “higher level of MDA”, the “MDA level compared to betulin-treated cells” value was “higher level of MDA” and the “MDA level compared to the control” value is given as “higher level of MDA”. Moreover, the “CAT activity compared to the betulin-treated cells” value in [10] is reported as “slight decrease”. In addition, in [11], the “catalase activity compared to cells treated with EB5” value is recorded as “higher catalase activity”, the “catalase activity compared to cells treated with betulin” value was “higher catalase activity” and the “catalase activity compared to the control” value was “higher catalase activity”. Besides, in data set [12], the “SOD1 gene expression vs. 5FU-treated cells” value is on record as “statistically significant increase in expression” and the “SOD1 gene expression vs. non-treated cells” value is “statistically significant increase in expression”. Further, in data set [13], the “SOD2 gene expression vs. 5FU-treated cells” value is recorded as “higher expression” and the “SOD2 gene expression vs. untreated cells” value is on record as “statistically significant increase in SOD2 gene expression”. For the same compound, the “CAT gene expression vs. 5FU” value in [14] is listed as “significant increase in expression”. In addition, the “CAT gene expression vs. 5FU” value in data set [15] is on record as “difference in the expression”.

For the compound `C#CC(=O)OC[C@]12CC[C@@H](/C(C)=C/P(=O)(OCC)OCC)C1C1CCC3[C@@]4(C)CC[C@H](O)C(C)(C)C4CC[C@@]3(C)[C@]1(C)CC2` (some centres unmarked) [ECH147, 29-diethoxyphosphoryl-28-propynylobetulin], the IC50 was 1.18 µg/mL and 2.04 µM in data set [1] (setting [18]); 0.63 µg/mL and 1.09 µM in [2] (Homo sapiens, HT-29, 24 h); 0.69 µg/mL and 1.19 µM in data set [3] (Homo sapiens, DLD-1, 24 h); 3.24 µg/mL and 5.59 µM in data set [4] (Homo sapiens, HCT-116, 24 h); 1.4 µg/mL and 2.43 µM in [16]; 5.21 µg/mL and 8.99 µM in data set [5] (Homo sapiens, SW 1116, 24 h). Further, in data set [17] (MTT, 24 h), the “cytotoxic effect compared with the other tested compounds” value is given as “strongest cytotoxic effect”. For the same compound, the “selectivity towards cancer cells” value in [17] (cancer lines vs normal cells) is on record as “does not show selectivity towards cancer cells”. Further, in [17] (each of the tested cell lines, concentrations higher than 1 µg/mL), the “change in cell viability” value is on record as “significant decrease in cell viability”.

For `C=C(C)[C@@H]1CC[C@]2(COC(=O)c3cn(CP(=O)(OCC)OCC)nn3)CC[C@]3(C)C(CCC4[C@@]5(C)CC[C@H](O)C(C)(C)C5CC[C@]43C)C12` (some centres unmarked) [TR50], the IC50 in data set [1] (setting [18]) was 4.33 µg/mL and 6.29 µM; in [2] (Homo sapiens, HT-29, 24 h), 10.3 µg/mL and 14.9 µM; in data set [3] (Homo sapiens, DLD-1, 24 h), 7.87 µg/mL and 11.4 µM; in data set [4] (Homo sapiens, HCT-116, 24 h) it was 6.71 µg/mL and 9.76 µM; in data set [16], 13 µg/mL and 18.9 µM; in data set [5] (Homo sapiens, SW 1116, 24 h), 33.1 µg/mL and 48.1 µM. Moreover, the IC50 in data set [6] (Homo sapiens, CCD-841CoN) is 18.3 µg/mL and 26.6 µM. Besides, the “sensitivity of cells to the compound” value in [5] (SW1116, 10 µg/mL, in comparison with other CRC lines and normal colonocytes) is on record as “lack of sensitivity”.

A word on the IC50: it is the concentration at which inhibition is half-maximal.
